Experimental data as given in ChEMBL document CHEMBL1134330, “Synthesis, in vitro pharmacology, and molecular modeling of syn-huprines as acetylcholinesterase inhibitors” (J Med Chem, 2001).

How the values were obtained:
Acetylcholinesterase [1] = biological target: Acetylcholinesterase (Homo sapiens, UniProt P22303); experiment: In vitro inhibitory concentration against acetylcholinesterase of human erythrocytes
Cholinesterase = Cholinesterase (Homo sapiens, UniProt P06276)
Description: In vitro inhibitory concentration against BChE of human serum

Acetylcholinesterase [2] = biological target: T1, Acetylcholinesterase (Bos taurus, UniProt P23795)
T1 sequence (P23795 whole entry): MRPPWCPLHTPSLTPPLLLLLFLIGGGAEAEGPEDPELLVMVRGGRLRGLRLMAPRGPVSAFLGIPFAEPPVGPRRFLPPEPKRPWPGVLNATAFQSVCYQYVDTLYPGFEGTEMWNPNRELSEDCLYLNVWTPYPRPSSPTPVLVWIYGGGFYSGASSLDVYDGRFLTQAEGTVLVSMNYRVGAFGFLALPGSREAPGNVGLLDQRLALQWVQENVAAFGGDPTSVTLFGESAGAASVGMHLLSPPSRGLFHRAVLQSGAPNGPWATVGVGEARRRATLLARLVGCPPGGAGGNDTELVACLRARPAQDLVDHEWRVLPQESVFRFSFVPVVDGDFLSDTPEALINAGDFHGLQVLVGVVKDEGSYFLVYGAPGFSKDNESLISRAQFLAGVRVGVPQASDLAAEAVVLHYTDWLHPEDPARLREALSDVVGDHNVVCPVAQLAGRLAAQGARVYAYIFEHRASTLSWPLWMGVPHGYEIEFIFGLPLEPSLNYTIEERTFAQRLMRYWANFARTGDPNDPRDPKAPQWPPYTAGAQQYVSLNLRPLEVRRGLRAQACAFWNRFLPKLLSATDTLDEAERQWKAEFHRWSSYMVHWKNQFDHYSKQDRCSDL
Description: In vitro inhibitory concentration against bovine acetylcholinesterase enzyme

Chain of Acetylcholinesterase (Homo sapiens, UniProt P22303) (P22303 whole entry): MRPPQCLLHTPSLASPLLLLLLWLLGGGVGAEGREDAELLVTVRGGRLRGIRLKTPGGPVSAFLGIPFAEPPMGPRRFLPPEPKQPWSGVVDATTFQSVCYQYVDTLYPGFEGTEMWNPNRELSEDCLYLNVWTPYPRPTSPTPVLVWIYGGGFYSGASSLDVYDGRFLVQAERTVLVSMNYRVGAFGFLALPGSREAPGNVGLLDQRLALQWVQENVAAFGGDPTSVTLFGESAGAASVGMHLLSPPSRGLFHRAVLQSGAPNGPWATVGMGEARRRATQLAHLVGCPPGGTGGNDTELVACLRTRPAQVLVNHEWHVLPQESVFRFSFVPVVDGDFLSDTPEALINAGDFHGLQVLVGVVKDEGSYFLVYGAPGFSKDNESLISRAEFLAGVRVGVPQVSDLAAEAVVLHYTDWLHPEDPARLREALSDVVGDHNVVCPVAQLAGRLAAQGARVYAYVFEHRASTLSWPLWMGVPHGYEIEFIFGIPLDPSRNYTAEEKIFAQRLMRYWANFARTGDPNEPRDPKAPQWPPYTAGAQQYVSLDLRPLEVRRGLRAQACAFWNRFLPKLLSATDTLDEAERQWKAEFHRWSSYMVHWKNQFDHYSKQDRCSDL
Chain of Cholinesterase (P06276 whole entry): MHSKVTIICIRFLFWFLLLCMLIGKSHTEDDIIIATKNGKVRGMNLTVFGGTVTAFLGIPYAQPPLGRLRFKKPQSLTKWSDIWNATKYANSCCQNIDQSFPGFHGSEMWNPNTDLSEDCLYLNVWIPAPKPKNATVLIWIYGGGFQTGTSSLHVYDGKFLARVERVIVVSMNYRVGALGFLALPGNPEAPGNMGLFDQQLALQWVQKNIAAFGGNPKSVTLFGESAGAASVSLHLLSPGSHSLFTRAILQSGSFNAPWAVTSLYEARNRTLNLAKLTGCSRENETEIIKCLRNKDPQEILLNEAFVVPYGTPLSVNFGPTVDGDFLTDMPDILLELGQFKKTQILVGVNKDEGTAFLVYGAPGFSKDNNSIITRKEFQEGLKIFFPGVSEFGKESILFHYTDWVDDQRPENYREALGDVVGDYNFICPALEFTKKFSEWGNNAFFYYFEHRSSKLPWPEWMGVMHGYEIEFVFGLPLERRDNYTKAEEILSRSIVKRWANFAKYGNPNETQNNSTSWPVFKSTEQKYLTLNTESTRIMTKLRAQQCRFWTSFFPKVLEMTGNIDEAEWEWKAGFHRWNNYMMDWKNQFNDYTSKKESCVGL

| Structure (SMILES) | IC50 (Acetylcholinesterase [1]) [nM] | IC50 (Cholinesterase) [nM] | IC50 (Acetylcholinesterase [2]) [nM] |
| --- | --- | --- | --- |
| CCC1=CC2Cc3nc4ccccc4c(N)c3C(C1)C2 (racemic) | 37.8 |  |  |
| CC1=CC2CC(C1)Cc1nc3ccccc3c(N)c12 (racemic) | 436 | 148 |  |
| CC1=CC2Cc3nc4ccccc4c(N)c3C(C1)C2 (racemic) | 51.6 |  |  |
| CCC1=CC2CC(C1)Cc1nc3ccccc3c(N)c12 (racemic) | 76.9 | 63 | 165 |
